Measurements published in publication PMC3769509 (Nuclear medicine and biology, 2013).
Where “and” joins values, the source holds several entries; their conditions need not be identical. Equal entries are not always repeated.

Experiments:
[1] = PET studies: brain pharmacokinetics; conditions: baboon, iv
[2] = PET studies: plasma analysis of unchanged radiotracer; conditions: baboon, iv; for fraction of radioactivity in plasma as unmetabolized compound: 30 min after administration
[3] = PET studies: biodistribution in peripheral organs; conditions: baboon, iv
[4] = epilepsy patients, after intravenous infusions; cited from earlier work
[5] = Free fraction in plasma; type: in vitro ADME; conditions: baboon plasma
[6] = Ex vivo rat brain analysis after [11C]BA administration; type: in vivo; conditions: 5 min and 30 min after administration, data not shown
[7] = Lipophilicity at pH 7.4; type: physicochemical
[8] = parent and/or labeled metabolites

| SMILES | brain uptake of carbon-11 [1] | fraction of radioactivity in plasma as unmetabolized compound [2] [%] | high uptake in vertebrae [3] | uptake in heart [3, 8] | % unbound in plasma [5] | Log D at pH 7.4 [7] | also measured |
| --- | --- | --- | --- | --- | --- | --- | --- |
| CCCC(=O)O [BA, n-butyric acid] | < 0.006 %ID/cc | – | – | – | – | – | – |
| O=C(O)CCCc1ccccc1 [PBA, 4-phenylbutyric acid] | < 0.006 %ID/cc | 85 | not observed | – | – | – | – |
| CCCC(CCC)C(=O)O [VPA, 2-propylpentanoic acid] | < 0.006 %ID/cc and 0.004 %ID/cc | 98 | not observed | remarkably high | – | – | free VPA in plasma [4]: 9–15% |
| CCC[11C](=O)O [[^11C]BA, [^11C]Butyric Acid] | ~ 0.006 %ID/cc | – | high uptake | very low | 82±0.4 (n=2) % | – | uptake in pancreas [3, 8]: relatively high and high; uptake in spleen [3, 8]: relatively high and high; intact [11C]BA fraction in brain [6]: very low |
| O=[11C](O)CCCc1ccccc1 [[^11C]PBA, [^11C]-4-Phenylbutyric Acid] | ~ 0.006 %ID/cc | – | – | moderate | 1.5±0.7 (n=6) % | −0.20±0.03 (n=6) | uptake in liver [3, 8]: high |
| CCCC(CCC)[11C](=O)O [[^11C]VPA, [^11C]Valproic Acid] | – | – | – | exceptionally high | 26±0.3 (n=2) % | 0.26±0.03 (n=5) | intact fraction in plasma ([2]; over 90 min): > 90% |
